Measurements as given in patent publication US20210309649A1, “SUBSTITUTED GLUTARIMIDE DERIVATIVES” (BASF SE, priority 2018, published 2021).

Experiments:
Type in all cases: in vivo
Nephotettix virescens = assay: Rice green leafhopper (Nephotettix virescens) rice seedling spray test; conditions: 72 h, read-out: mortality in comparison with untreated controls
Experimental: Rice seedlings were cleaned and washed 24 hours before spraying. The active compounds were formulated in 1:1 acetone:water (vol:vol), and 0.01% vol/vol surfactant (Kinetic HV) was added. Potted rice seedlings were sprayed with 5-6 ml test solution, air dried, covered with Mylar cages and inoculated with 10 adults. Treated rice plants were kept at about 28-29° C. and relative humidity of about 50-60%. Percent mortality was recorded after 72 hours.

Spodoptera eridania = assay: Southern armyworm (Spodoptera eridania) lima bean foliar spray test; conditions: 96 h, read-out: mortality in comparison with untreated controls
Experimental: The active compounds were formulated in cyclohexanone as a 10,000 ppm solution supplied in tubes. The tubes were inserted into an automated electrostatic sprayer equipped with an atomizing nozzle and they served as stock solutions for which lower dilutions were made in 50% acetone:50% water (v/v). A nonionic surfactant (Kinetic®) was included in the solution at a volume of 0.01% (v/v).
Lima bean plants (variety Sieva) were grown 2 plants to a pot and selected for treatment at the 1st true leaf stage. Test solutions were sprayed onto the foliage by an automated electrostatic plant sprayer equipped with an atomizing spray nozzle. The plants were dried in the sprayer fume hood and then removed from the sprayer. Each pot was placed into perforated plastic bags with a zip closure. About 10 to 11 armyworm larvae were placed into the bag and the bags zipped closed. Test plants were maintained in a growth room at about 25° C. and about 20-40% relative humidity for 4 days, avoiding direct exposure to fluorescent light (24 hour photoperiod) to prevent trapping of heat inside the bags. Mortality and reduced feeding were assessed 4 days after treatment, compared to untreated control plants.

Dichromothrips corbetti = assay: Orchid thrips (Dichromothrips corbetti) floral-immersion test; conditions: 72 h, read-out: mortality in comparison with untreated controls
Experimental: Dichromothrips corbetti adults used for bioassay were obtained from a colony maintained continuously under laboratory conditions. For testing purposes, the test compound is diluted in a 1:1 mixture of acetone:water (vol:vol), plus Kinetic HV at a rate of 0.01% v/v.
Thrips potency of each compound was evaluated by using a floral-immersion technique. All petals of individual, intact orchid flowers were dipped into treatment solution and allowed to dry in Petri dishes. Treated petals were placed into individual re-sealable plastic along with about 20 adult thrips. All test arenas were held under continuous light and a temperature of about 28° C. for duration of the assay. After 3 days, the numbers of live thrips were counted on each petal. The percent mortality was recorded 72 hours after treatment.

Anthonomus grandis = assay: Boll weevil (Anthonomus grandis) insect diet test; conditions: 120 h, read-out: mortality in comparison with untreated controls
Experimental: For evaluating control of boll weevil (Anthonomus grandis) the test unit consisted of 96-well-microtiter plates containing an insect diet and 5-10 A. grandis eggs.
The compounds were formulated using a solution containing 75% v/v water and 25% v/v DMSO. Different concentrations of formulated compounds were sprayed onto the insect diet at 5 μl, using a custom built micro atomizer, at two replications.
After application, microtiter plates were incubated at about 25±1° C. and about 75±5% relative humidity for 5 days. Egg and larval mortality was then visually assessed.

Myzus persicae = assay: Green peach aphid (Myzus persicae) systemic artificial diet test; conditions: 72 h, read-out: mortality in comparison with untreated controls
Excerpt: For evaluating control of green peach aphid (Myzus persicae) through systemic means the test unit consisted of 96-well-microtiter plates containing liquid artificial diet under an artificial mem brane.
The compounds were formulated using a solution containing 75% v/v water and 25% v/v DMSO. Different concentrations of formulated compounds were pipetted into the aphid diet, using a custom built pipetter, at two replications.
After application, 5-8 adult aphids were placed on the artificial membrane inside the microtiter plate wells. The aphids were then allowed to suck on the treated aphid diet and incubated at about 23±1° C. and about 50±5% relative humidity for 3 days. Aphid mortality and fecundity was then visually assessed.

Heliothis virescens = assay: Tobacco budworm (Heliothis virescens) insect diet test; conditions: 120 h, read-out: mortality in comparison with untreated controls
Experimental: For evaluating control of tobacco budworm (Heliothis virescens) the test unit consisted of 96-well-microtiter plates containing an insect diet and 15-25 H. virescens eggs.
The compounds were formulated using a solution containing 75% v/v water and 25% v/v DMSO. Different concentrations of formulated compounds were sprayed onto the insect diet at 10 μl, using a custom built micro atomizer, at two replications.
After application, microtiter plates were incubated at about 28±1° C. and about 80±5% relative humidity for 5 days. Egg and larval mortality was then visually assessed.

Plutella xylostella = assay: Diamond back moth (Plutella xylostella) cabbage leaf dip test; conditions: foliar, 72 h, read-out: mortality in comparison with untreated controls
Experimental: The active compound was dissolved at the desired concentration in a mixture of 1:1 (vol:vol) distilled water:aceteone. Surfactant (Kinetic HV) was added at a rate of 0.01% (vol/vol). The test solution was prepared at the day of use.
Leaves of cabbage were dipped in test solution and air-dried. Treated leaves were placed in petri dishes lined with moist filter paper and inoculated with ten 3rd instar larvae. Mortality was recorded 72 hours after treatment. Feeding damages were also recorded using a scale of 0-100%.

Nezara viridula = assay: Green soldier stink bug (Nezara viridula) soybean pod spray test; conditions: 120 h, read-out: mortality in comparison with untreated controls
Experimental: The active compound was dissolved at the desired concentration in a mixture of 1:1 (vol:vol) distilled water:acetone. Surfactant (Kinetic HV) was added at a rate of 0.01% (vol/vol). The test solution was prepared at the day of use. Soybean pods were placed in glass Petri dishes lined with moist filter paper and inoculated with ten late 3rd instar N. viridula. Using a hand atomizer, approximately 2 ml solution is sprayed into each Petri dish. Assay arenas were kept at about 25° C. Percent mortality was recorded after 5 days.

Halyomorpha halys = assay: Brown marmorated stink bug (Halyomorpha halys) spray test; conditions: in Glycine max, 120 h, read-out: mortality in comparison with untreated controls
Experimental: (§1) The active compound was dissolved at the desired concentration in a mixture of 1:1 (vol:vol) distilled water:acetone. Surfactant (Kinetic HV) was added at a rate of 0.01% (vol/vol). The test solution was prepared at the day of use.
Row peanuts and soybean seeds were placed into microwavable plastic cups and inoculated with five adult stage H. halys. Using a hand atomizer, approximately 1 ml solution is sprayed into each cup, insects and food present. A water source was provided (cotton wick with water).
Each treatment is replicated 4-fold. Assay arenas are kept at about 25° C. Percent mortality was recorded after 5 days.

Euschistus heros = assay: Neotropical brown stink bug (Euschistus heros) soybean pod spray test; conditions: 120 h, read-out: mortality in comparison with untreated controls
Experimental: as §1
Soybean pods were placed in microwavable plastic cups and inoculated with ten adult stage E. heros. Using a hand atomizer, approximately 1 ml solution is sprayed into each cup, insects and food present. A water source was provided (cotton wick with water). Each treatment was replicated 2-fold. Assay arenas were kept at about 25° C. Percent mortality was recorded after 5 days.

Tetranychus kanzawai = assay: Red spider mite (Tetranychus kanzawai) cowpea bean spray test; conditions: 72 h, read-out: mortality in comparison with untreated controls
Experimental: The active compound was dissolved at the desired concentration in a mixture of 1:1 (vol:vol) distilled water:acetone. Add surfactant (Kinetic HV) was added at a rate of 0.01% (vol/vol). The test solution was prepared at the day of use.
Potted cowpea beans of 4-5 days of age were cleaned with tap water and sprayed with 1-2 ml of the test solution using air driven hand atomizer. The treated plants were allowed to air dry and afterwards inoculated with 30 or more mites by clipping a cassava leaf section from rearing population. Treated plants were placed inside a holding room at about 25-27° C. and about 50-60% relative humidity. Percent mortality was assessed 72 hours after treatment.

Megoura viciae = assay: Vetch aphid (Megoura viciae) leaf disk test; conditions: foliar, 120 h, read-out: mortality in comparison with untreated controls
Experimental: For evaluating control of vetch aphid (Megoura viciae) through contact or systemic means the test unit consisted of 24-well-microtiter plates containing broad bean leaf disks.
The compounds were formulated using a solution containing 75% v/v water and 25% v/v DMSO. Different concentrations of formulated compounds were sprayed onto the leaf disks at 2.5 μl, using a custom built micro atomizer, at two replications.
After application, the leaf disks were air-dried and 5-8 adult aphids placed on the leaf disks inside the microtiter plate wells. The aphids were then allowed to suck on the treated leaf disks and incubated at about 23±1° C. and about 50±5% relative humidity for 5 days. Aphid mortality and fecundity was then visually assessed.

CN1C(=O)CC[C@@H](NC(=O)c2ccc(C3=NOC(c4cc(Cl)c(F)c(Cl)c4)(C(F)(F)F)C3)cc2Cl)C1=O (stereo partly drawn) [Compound 1-1, 2-chloro-4[5-(3,5-dichloro-4-fluoro-phenyl)-5-(trifluoromethyl)-4H-isoxazol-3-yl]-N-[(3R)-1-methyl-2,6-dioxo-3-piperidyl]benzamide]
> 75%: mortality at 300 ppm (Nephotettix virescens) | mortality at 10 ppm (Spodoptera eridania) | mortality at 300 ppm (Dichromothrips corbetti) | mortality at 2500 ppm (Anthonomus grandis) | mortality at 2500 ppm (Myzus persicae) | mortality at 2500 ppm (Heliothis virescens) | mortality at 300 ppm (Plutella xylostella) | mortality at 300 ppm (Nezara viridula) | mortality at 100 ppm (Halyomorpha halys) | mortality at 500 ppm (Euschistus heros) | mortality at 300 ppm (Tetranychus kanzawai) | mortality at 2500 ppm (Megoura viciae)

Cc1cc(C2=NOC(c3cc(Cl)cc(Cl)c3)(C(F)(F)F)C2)ccc1C(=O)N[C@@H]1CCC(=O)N(CC(F)F)C1=O (stereo partly drawn) [Compound 1-18, 4-[5-(3,5-dichlorophenyl)-5-(trifluoromethyl)-4H-isoxazol-3-yl]-N-[(3R)-1-(2,2-difluoroethyl)-2,6-dioxo-3-piperidyl]-2-methyl-benzamide]
> 75%: mortality at 300 ppm (Nephotettix virescens) | mortality at 300 ppm (Dichromothrips corbetti) | mortality at 2500 ppm (Anthonomus grandis) | mortality at 2500 ppm (Myzus persicae) | mortality at 2500 ppm (Heliothis virescens) | mortality at 300 ppm (Plutella xylostella) | mortality at 300 ppm (Nezara viridula) | mortality at 100 ppm (Halyomorpha halys) | mortality at 500 ppm (Euschistus heros) | mortality at 300 ppm (Tetranychus kanzawai) | mortality at 2500 ppm (Megoura viciae)
